Tests used:
[1] = tested on: L. (V.) panamensis (MHOM/COL/87/UA140-EGFP); test: Therapeutic in vivo response in hamsters with experimental cutaneous leishmaniasis; set-up: species or system golden hamster (Mesocrisetus auratus)
Source text: We used a golden hamster (Mesocrisetus auratus) model to evaluate the therapeutic response of synthetic alkaloid compounds 2 and 8. Male and female 6-week-old hamsters with a mean live weight (LW) of 120 g were infected by a dorsal intradermic injection of L. (V.) panamensis (MHOM/COL/87/UA140-EGFP) promastigotes. After the infected hamsters developed ulcers, they were randomly divided into three groups (n = 6 each) and treated topically with 1% ointment formulated from compounds 2 and 8.
(§1) The hamsters were monitored every 4 weeks to assess their appearance and weight and the lesion size. We categorized each compound’s effectiveness pre- and posttreatment as follows: (i) cure (complete disappearance of lesions), (ii) improvement (>10% reduced lesion area), and (iii) therapeutic failure or nonresponse (increased lesion size). The health status was monitored weekly for 3 months (12 weeks) posttreatment. After 3 months, the hamsters were euthanized in a CO2 chamber. We performed histopathological analysis after necropsy of the affected tissues and organs. In addition, we evaluated treatment cytotoxicity using LW monitoring and biochemical parameters (alanine aminotransferase [ALT], creatinine, and blood urea nitrogen [BUN]) pretreatment and 45 days after ointment administration.
The in vivo efficacy of compounds 1, 2, and 8 was expressed as a percentage cure, improvement, or nonresponse compared to the beginning of treatment. Efficacy was evaluated in vivo to compare percentages, the frequency of change, and treatment cytotoxicity in the hamster model. We used GraphPad Prism to determine ROS and NO production and the apoptotic cell percentage. One- or two-way analysis of variance (ANOVA; response–time kinetics) was used to compare treatments after confirming normal data distribution. P < 0.05 was considered statistically significant by comparing untreated cells (experiments on untreated hMDMs) with infected cells (experiments on untreated and treated hMDMs).

[2] = tested on: L. (V.) panamensis-infected hMDMs; test: Transmission electron microscopy of L. (V.) panamensis-infected hMDMs; format: cell-based, human; settings: compound at EC50, 72 h, TEM; on Cell membrane (ultrastructural modification grade): key: -: no alteration/absence; +: low alteration/low presence; ++: alteration/moderate presence; +++: serious disturbance/abundant presence; on LB (lipid bodies, grade): key: -: no alteration/absence; +: low alteration/low presence; ++: alteration/moderate presence; +++: serious disturbance/abundant presence; on Mitochondria (ultrastructural modification grade): key: -: no alteration/absence; +: low alteration/low presence; ++: alteration/moderate presence; +++: serious disturbance/abundant presence; on Nucleus (ultrastructural modification grade): key: -: no alteration/absence; +: low alteration/low presence; ++: alteration/moderate presence; +++: serious disturbance/abundant presence
Source text: (§2) This procedure involved including fresh resin and 100–200-nm-wide ultrafine cuts observed by TEM (100X–10.000X) (HITACHI-HU-12; Hitachi, Tokyo, Japan).

[3] = tested on: L. (V.) panamensis intracellular amastigotes; test: Transmission electron microscopy of L. (V.) panamensis intracellular amastigotes in hMDMs; format: cell-based, Leishmania (Viannia) panamensis; set-up: Nucleus (ultrastructural alteration grade) / Vacuoles (ultrastructural alteration grade): key: -: no alteration/absence; +: low alteration/low presence; ++: alteration/moderate presence; +++: serious disturbance/abundant presence; settings: compound at EC50, 72 h, TEM
Source text: as §2

[4] = tested on: L. (V.) panamensis promastigotes; test: Antileishmanial activity in L. (V.) panamensis promastigotes (resazurin, 72 h); format: cell-based, Leishmania (Viannia) panamensis; settings: L. (V.) panamensis promastigotes, ± SD
Description: They were treated with quinoline alkaloid–like compounds at a concentration of 100, 10, 1, 0.1, and 0.01 μg/mL for 72 h at 26°C. Next, we determined antileishmanial activity using the resazurin method (Sigma-Aldrich). Promastigotes treated with amphotericin B (Sigma-Aldrich) and pentamidine (Sanofi-Aventis, Gentilly, France) were used as parasite death (positive) controls. Results were expressed as the medial effective concentration (EC50) using Prism GraphPad software for nonlinear regression analysis (https://www.graphpad.com/scientific-software/prism/).
(§3) All assays required at least three independently duplicated experiments. We determined cytotoxicity against hMDMs and effectivity in L. (V) panamensis promastigotes according to each treatment’s mortality (compound and concentration) using Eq 1, where the control mean fluorescence intensity (MFI) was 100% viability: Validityinhibition(%)=100−[MIFexposedcells/MIFunexposedcells×100] (1)
(§4) We used GraphPad Prism nonlinear regression analysis to estimate the percentage mortality with regard to CC50 and EC50. […] The antileishmanial activity with regard to promastigotes was classified as active according to Eq 2: Active=EC50<[LC50/2], (2) where LC50 is the median lethal concentration. We also used GraphPad Prism nonlinear regression analysis to determine the intracellular antileishmanial activity (concentration vs. response), depending on the infection (number of infected cells) and parasite burden (number of parasites/cell) obtained in experimental conditions. Parasite inhibition was estimated using Eq 3, where the plate MFI is 100% parasites: Infectioninhibition(%)=100−[(MIFexposedparasites/MIFunexposedparasites×100)] (3)

[5] = Treatment toxicity in hamsters (live weight, ALT, creatinine, BUN); format: in vivo, golden hamster (Mesocrisetus auratus); settings: topical 1% ointment
Source text: as §1

hMDMs = test: Cytotoxicity in hMDMs (resazurin, 72 h); settings: class by CC50
Description: We isolated hMDMs from buffy coats donated by the Institute of Local Science (Biotechnology and Health Innovation, Bogotá, Colombia) and spun them in Lymphoprep density gradient medium (Stem-Cell, Vancouver, Canada).
Next, we added 100 μL of this culture to each quinoline alkaloid–like compound at a concentration of 200, 20, 2, 0.2, and 0.02 μg/mL. […] Cells treated with amphotericin B (Sigma-Aldrich) were used as cell apoptosis (positive) controls. Results were expressed as the medial cytotoxic concentration (CC50) using Prism GraphPad software for nonlinear regression analysis (https://www.graphpad.com/scientific-software/prism/).
as §3, §4

[6] = hamsters, topical 1% ointment, 3 months posttreatment, n = 6

In the case of “1,2,3,4-tetrahydro(benzo)-3-quinolin-ol [Compound 2]”, the “Histopathologic analysis of the skin, cured hamsters” value ([1]; hamsters cured by treatment, hematoxylin/eosin) is reported as “moderate orthokeratotic hyperkeratosis and low mononuclear leukocyte infiltration”, the “Histopathologic analysis of the skin, hamsters showing improvement” value ([1]; hamsters showing improvement, hematoxylin/eosin) is reported as “severe leukocyte infiltratation and abundant L. (V.) panamensis being phagocytosed by hMDMs” and the “Lesion size during treatment” value ([1]; hamsters, topical 1% ointment) is reported as “significantly reduced lesions”. For the same substance, the “Improvement (reduced lesion size), percentage of the experimental group” value [1, 6] was 66.6%, the “Total cure (healing), percentage of the experimental group” value [1, 6] was 33.3% and the “Cell membrane (ultrastructural modification grade)” value [2] was “-”. For the same substance, the “LB (lipid bodies, grade)” value [2] was “+++”, the “Mitochondria (ultrastructural modification grade)” value [2] was “+” and the “Nucleus (ultrastructural modification grade)” value [2] was “-”. For the same substance, the “PV (description)” value [2] was “Multiple parasites per vacuole”, the “PV (parasitophorous vacuoles, grade)” value [2] was “+” and the “Parasites (grade)” value [2] was “++”. For the same substance, the “Vacuoles (ultrastructural modification grade)” value [2] was “-”, the “Cell membrane (ultrastructural alteration grade)” value [3] was “-” and the “Flagellum (flagellar/axonema pocket) (description)” value [3] was “Multiple organelles”. For the same substance, the “Flagellum (flagellar/axonema pocket) (grade)” value [3] was “++”, the “LB (lipid bodies, grade)” value [3] was “+++” and the “Mitochondria/Kinetoplasts (description)” value [3] was “Multiple organelles”. For the same substance, the “Mitochondria/Kinetoplasts (ultrastructural alteration grade)” value [3] was “++”, the “Nucleus (description)” value [3] was “Abnormal distribution of chromatine” and the “Nucleus (ultrastructural alteration grade)” value [3] was “++”. The “PV (description)” value [3] was “Multiple”, the “PV (parasitophorous vacuoles, grade)” value [3] was “+” and the “Vacuoles (description)” value [3] was “Double membrane (autophagic-digestives)”. The “Vacuoles (ultrastructural alteration grade)” value [3] was “+++”, the “EC50 Intracellular promastigotes” value [4] was 3.4 ± 1.1 µg/mL and the EC50 ([4]; read-out: EC50 Intracellular promastigotes (converted)) was 17 µM. For the same substance, the Cytotoxicity-related clinical manifestations [5] was “No cytotoxicity-related clinical manifestations”, the Live weight posttreatment [5] was “no evident changes during treatment” and the “Cytotoxicity class toward hMDMs” value (hMDMs) was “high (high if CC50 < 100 μg/mL)”.

Reference: article PMC7769561, “Antileishmanial activity of synthetic analogs of the naturally occurring quinolone alkaloid N-methyl-8-methoxyflindersin” (PLoS ONE, 2020)
